According to patent US5789417A, “Tricyclic compounds with pharmaceutical activity” (Zeneca Limited, priority 1992, dated 1998):

What was measured:
[1] = test system: lymphoma cell line L5178Y TK-/-; experiment: Test (d): cytotoxicity to lymphoma cell line L5178Y TK-/- in vitro; format: cell-based; conditions: Mus musculus
Text: (d) An assay which determines the ability of a test compound to be cytotoxic to the lymphoma cell line L5178Y TK-/- in vitro. The lymphoma cell line L5178Y TK-/- is deficient in the enzyme thymidine kinase with phosphorylates thymidine and thus operates to generate a pool of thymidylate when de novo synthesis of thymidylate is prevented by the presence of an effective amount of an inhibitor of thymidylate synthase. The L5178Y TK-/- cell line is thereby more sensitive to the presence of an inhibitor of thymidylate synthase. [L5178Y TK-/- was obtained by mutation of the parent L5178Y cell line which is described by, for example, Fischer et al., Methods in Medical Research, 1964, 10, 247].

thymidylate synthase = target: T1, thymidylate synthase (Mus musculus, UniProt P07607); experiment: Test (a): in vitro inhibition of thymidylate synthase; format: biochemical; conditions: partially purified thymidylate synthase from L1210 mouse leukaemia cells
T1 construct: Thymidylate synthase was obtained in partially purified form from L1210 mouse leukaemia cells; endogenous in cells; host or cells: L1210 mouse leukaemia cells (enzyme partially purified)
Text: (a) An in vitro assay which determines the ability of a test compound to inhibit the enzyme thymidylate synthase. Thymidylate synthase was obtained in partially purified form from L1210 mouse leukaemia cells and utilised using the procedures described by Jackman et al. (Cancer Res., 1986, 46, 2810 and Sikora et al., Biochem. Pharmacol. 1988, 37 4047);

[2] = test system: leukaemia cell line L1210; experiment: Test (b): inhibition of growth of leukaemia cell line L1210 in cell culture; format: cell-based; conditions: Mus musculus
Text: (b) An assay which determines the ability of a test compound to inhibit the growth of the leukaemia cell line L1210 in cell culture. The test is similar to that described in UK Patent Specification No. 2065653B and has been described by Jones et al., J. Med. Chem., 1985, 28, 1468;

[3] = test system: human breast cancer cell line MCF-7; experiment: Test (c): inhibition of growth of human breast cancer cell line MCF-7 in cell culture; format: cell-based; conditions: MCF7, MCF-7 cell growth
Text: (c) An assay which determines the ability of a test compound to inhibit the growth of the human breast cancer cell line MCF-7 in cell culture. The test is similar to that described by Lippman et al. (Cancer Res., 1976, 36, 4595) and […]

[4] = test system: human breast, ovarian and liver cancer; conditions: clinical, in words; cited from earlier work
[5] = Cancer Treatment Reports, 1986, 70, 1335; in words; cited from earlier work

T1 sequence (P07607 whole entry): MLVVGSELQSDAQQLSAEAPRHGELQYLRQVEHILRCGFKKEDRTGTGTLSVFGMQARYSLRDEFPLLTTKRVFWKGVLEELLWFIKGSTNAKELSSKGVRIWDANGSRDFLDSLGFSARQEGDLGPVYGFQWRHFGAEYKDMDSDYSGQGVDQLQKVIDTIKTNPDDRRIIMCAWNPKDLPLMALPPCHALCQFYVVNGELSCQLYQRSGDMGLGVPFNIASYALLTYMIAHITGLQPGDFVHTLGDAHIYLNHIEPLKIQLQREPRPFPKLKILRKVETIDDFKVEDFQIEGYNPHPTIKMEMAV

Row | SMILES | IC50 [1] [nM] | IC50 (thymidylate synthase) [nM] | IC50 [2] [nM] | IC50 [3] [nM] | activity against human breast, ovarian and liver cancer [4] | toxicity in humans [5]
1 | C#CCN(c1ccc(C(=O)N[C@@H](CCC(=O)O)C(=O)O)cc1)C1CCc2cc3nc(C)[nH]c(=O)c3cc21 (mixture of isomers) [Example 1, N-{p-[N-((6RS)-2-methyl-4-oxo-3,4,7,8-tetrahydro-6H-cyclopenta[g]quinazolin-6-yl)-N-(prop-2-ynyl)amino]benzoyl}-L-glutamic acid] | 720 | 7 | 280 | 20 |  | 
2 | C#CCN(Cc1ccc2nc(N)[nH]c(=O)c2c1)c1ccc(C(=O)N[C@@H](CCC(=O)O)C(=O)O)cc1 [CB3717] |  |  |  |  | promising activity against human breast, ovarian and liver cancer | shows symptoms of toxicity in humans, particularly in relation to the liver and kidney
